Data published in patent US6064908A, “Device for ionophoresis comprising at least a membrane electrode assembly, for the transcutaneous administration of active principles to a subject” (Elf Aquitaine, priority 1996, dated 2000).

Legend:
nude rat skin = assay: transdermic passage of pentasaccharide sodium salt by iontophoresis at set intensity through nude rat skin; format: in vitro ADME; conditions: for Utilization factor of the active principle: quantity at 22 hours/initial quantity
Description: The procedure was carried out in iontophoresis cells with identical structure. Each iontophoresis cell consisted of three coaxial, adjacent cylindrical compartments of 2 cm^2 cross section, namely, in this order, a donor compartment, a receiver compartment and a back electrode compartment, these three compartments each being separated from the next in leaktight fashion by a piece of nude rat skin from the same batch, serving as a skin sample for studying the transdermic diffusion. […] The receiver compartment, with a volume of 10 ml, contained a 9 g/liter solution of NaCl and was agitated using a magnetic bar. The back electrode compartment, with a volume of 0.5 ml, contained a 2% by weight aqueous solution of NaCl. At its end opposite the receiver compartment, the donor compartment was fitted with a negative electrode or cathode consisting of a 15 μm thick film of silver chloridized on one face to contain an AgCl layer corresponding to 2 mAh/cm^2. In the same way as the donor compartment, the back electrode compartment was equipped with a positive electrode or anode (back electrode) consisting of a 15 μm silver film weakly chloridized on the surface (a quantity of AgCl corresponding to 0.1 mAh/cm^2). The chloridized face of each electrode was turned towards the rat skin sample.
The rat skin samples had had the subcutaneous tissues removed and were preserved by freezing at -40° C. until they were fitted in the iontophoresis cell, with the dermal faces turned towards the receiver compartment, after having spent 15 minutes in physiological salt solution.
For each of the tests which were carried out, six identical iontophoresis cells were started up simultaneously. The active exchange surface was 2 cm^2 for each skin sample. […]
At the end of the said period, an aliquot of the medium contained in the receiver compartment was taken, and the quantity of pentasaccharide which had passed through the skin separating the donor and receiver compartments of each cell was determined by assaying. A second sample was taken 22 hours after the start of each experiment, i.e. 17 hours after the end of the electric signal, in order to allow a significant proportion of the quantities of pentasaccharide active principle held in the skin sample to diffuse in the absence of subcutaneous blood circulation.
Five tests 1a to 1e were carried out as follows:
For each of the tests, the average antifactor Xa activity per ml of medium was determined on aliquots taken from the receiver compartments of the six cells, this representing the quantity of pentasaccharide which had diffused into these compartments after the 5 hours of applying the current and 22 hours after the start of each experiment, i.e. 17 hours after the end of the said current.
The assay of the pentasaccharide in the receiver compartment was based on investigating its antifactor Xa activity. […] The calibration curve was established using a "Golden Standard" pentasaccharide solution to which an antifactor Xa activity equal to 13 units per ml was assigned.
The data presented in this table are average results calculated over a series of six identical cells receiving the same quantities of electricity.

factor Xa = assay: antifactor Xa activity of the active principle; format: biochemical; conditions: sodium salt
Description: The assay of the pentasaccharide in the receiver compartment was based on investigating its antifactor Xa activity. The assay was carried out either directly on the medium sample from the receiver compartment or after dilution, using a ROTACHROM HEPARIN 8® assay kit, with a complementary buffer for the assay instrument and the bovine antithrombin III, these various elements being supplied by the company STAGO, using a HITACHI 717 assay instrument. The calibration curve was established using a "Golden Standard" pentasaccharide solution to which an antifactor Xa activity equal to 13 units per ml was assigned.

[1] = Test 1a: no membrane, 5 mg/cm^2, 1 mAh/cm^2
[2] = Test 1b: no membrane, 1 mg/cm^2, 1 mAh/cm^2
[3] = Test 1c: cellulose acetate/POEG membrane 75 μm, 1 mg/cm^2, 0.9 mAh/cm^2
[4] = Test 1e: PEBAX MV 1074 membrane 50 μm, hydrogel, 0.5 mg/cm^2, 1 mAh/cm^2
[5] = Test 1d (PEBAX MV 1041 membrane) vs Test 1b (no membrane)
[6] = Test 1d: PEBAX MV 1041 membrane 50 μm, 1 mg/cm^2, 1 mAh/cm^2

How did the “Quantity of active principle at 5 hours” value (nude rat skin; Passive, no current, 5 mg/cm^2) turn out when `O=C(O)C1OC(OC2C(COS(=O)(=O)O)OC(OC3C(C(=O)O)OC(OC4C(COS(=O)(=O)O)OC(O)C(NS(=O)(=O)O)C4O)C(OS(=O)(=O)O)C3O)C(NS(=O)(=O)O)C2OS(=O)(=O)O)C(O)C(O)C1OC1OC(COS(=O)(=O)O)C(O)C(O)C1NS(=O)(=O)O` (stereo not shown) [pentasaccharide] was run?
The value was 1 μg/cm^2.

And the “Quantity of active principle at 22 hours” value (nude rat skin; Passive, no current, 5 mg/cm^2)?
The value was 1.5 μg/cm^2.

And the “Quantity of active principle per mAh” value (nude rat skin; Passive, no current, 5 mg/cm^2)?
The value was 1.5 μg/cm^2.

And the “aXa activity/ml at 5 hours” value (nude rat skin; Passive, no current, 5 mg/cm^2)?
Its value is 0.2 mL⁻¹.

What about the “aXa activity/ml at 22 hours” value (nude rat skin; Passive, no current, 5 mg/cm^2) of the same compound?
The value was 0.3 mL⁻¹.

And the “Utilization factor of the active principle” value (from here on “Utilization factor”) (nude rat skin; Passive, no current, 5 mg/cm^2)?
The value was 0.03%.

What about the “Quantity of active principle at 5 hours” value (nude rat skin; [1]) of the same compound?
The value was 115 μg/cm^2.

And the “Quantity of active principle at 22 hours” value (nude rat skin; [1])?
The value was 150 μg/cm^2.

What about the “Quantity of active principle per mAh” value (nude rat skin; [1]) of the same compound?
Its value is 150 μg/cm^2.

And the “aXa activity/ml at 5 hours” value (nude rat skin; [1])?
The value was 23 mL⁻¹.

What about the “aXa activity/ml at 22 hours” value (nude rat skin; [1]) of the same compound?
The value was 30 mL⁻¹.

What about the “Utilization factor” value (nude rat skin; [1]) of the same compound?
The value was 3%.

And the “Quantity of active principle at 5 hours” value (nude rat skin; [2])?
The value was 110 μg/cm^2.

And the “Quantity of active principle at 22 hours” value (nude rat skin; [2])?
The value was 140 μg/cm^2.

What about the “Quantity of active principle per mAh” value (nude rat skin; [2]) of the same compound?
The value was 140 μg/cm^2.

What about the “aXa activity/ml at 5 hours” value (nude rat skin; [2]) of the same compound?
The value was 22 mL⁻¹.

And the “aXa activity/ml at 22 hours” value (nude rat skin; [2])?
The value was 28 mL⁻¹.

What about the “Utilization factor” value (nude rat skin; [2]) of the same compound?
The value was 14%.

And the “Quantity of active principle at 5 hours” value (nude rat skin; [3])?
Its value is 75 μg/cm^2.

And the “Quantity of active principle at 22 hours” value (nude rat skin; [3])?
The value was 110 μg/cm^2.

And the “Quantity of active principle per mAh” value (nude rat skin; [3])?
Its value is 125 μg/cm^2.

And the “aXa activity/ml at 5 hours” value (nude rat skin; [3])?
Its value is 15 mL⁻¹.

And the “aXa activity/ml at 22 hours” value (nude rat skin; [3])?
Its value is 20 mL⁻¹.

What about the “Utilization factor” value (nude rat skin; [3]) of the same compound?
Its value is 11%.

What about the “Quantity of active principle at 5 hours” value (nude rat skin; [4]) of the same compound?
Its value is 245 μg/cm^2.

And the “Quantity of active principle at 22 hours” value (nude rat skin; [4])?
Its value is 310 μg/cm^2.

What about the “Quantity of active principle per mAh” value (nude rat skin; [4]) of the same compound?
The value was 310 μg/cm^2.

And the “aXa activity/ml at 5 hours” value (nude rat skin; [4])?
The value was 49 mL⁻¹.

And the “aXa activity/ml at 22 hours” value (nude rat skin; [4])?
Its value is 62 mL⁻¹.

What about the “Utilization factor” value (nude rat skin; [4]) of the same compound?
Its value is 62%.

And the “active principle depletion factor of the donor electrode assembly (in words)” value (nude rat skin; [5])?
Its value is “increased very substantially”.

What about the “quantity of active principle administered per unit quantity of electricity (in words)” value (nude rat skin; [5]) of the same compound?
The value was “increased very substantially”.

And the “Quantity of active principle at 5 hours” value (nude rat skin; [6])?
Its value is 295 μg/cm^2.

What about the “Quantity of active principle at 22 hours” value (nude rat skin; [6]) of the same compound?
The value was 390 μg/cm^2.

And the “Quantity of active principle per mAh” value (nude rat skin; [6])?
The value was 390 μg/cm^2.

What about the “aXa activity/ml at 5 hours” value (nude rat skin; [6]) of the same compound?
Its value is 59 mL⁻¹.

And the “aXa activity/ml at 22 hours” value (nude rat skin; [6])?
The value was 70 mL⁻¹.

And the “Utilization factor” value (nude rat skin; [6])?
Its value is 39%.

What about the “passive transport of the pentasaccharide (in words)” value (nude rat skin; no current) of the same compound?
The value was “very low”.

What about the “antifactor Xa activity” value (factor Xa) of the same compound?
The value was 0.65 "Golden Standard" units per microgram.
